Consider two molecules from patent US20230256110A1, “COMBINATION OF ANTIBODY-DRUG CONJUGATE AND ATM INHIBITOR” (AstraZeneca UK Limited, priority 2020, published 2023).

What is called GI50 is the concentration at which growth is held to half of that of the control.

Entries after “also recorded” stand apart in the source; their conditions may differ. Structures can show the parent of a compound that is named as a salt.

One assay relates to SK-OV-3 cell line. The assay is described as follows: Growth inhibition by total cell (nuclear) count, 96-well imaging. The note with it: Homo sapiens; monotherapy; SK-OV-3, ovarian, HER2 Moderate; 4 to 8 days. In kind it is cell-based. The method, then: (§1) Cells grown in their respective conditions were plated in 96-well plates at optimal density to allow linear proliferation for the duration of the assay (4 to 8 days; duration of treatment is dependent on the growth rate of each cell line). Immediately after plating, the cells were dosed with the indicated compounds for a total volume of 200 μL/well and placed in the incubator. Combinations were conducted as a 6×8 concentration response matrix for each combination. At the endpoint, the cells were fixed in 2% PFA for 20 minutes at room temperature. In order to obtain the number of cells at the start of treatment, one additional plate was used for each experiment and fixed after cells attached. The cells were then permeabilised in 0.5% Triton-X100 in PBS for 10 minutes. After a PBS wash, the cells were blocked in 5% FBS in PBS 1 h at RT and incubated with primary antibodies in 5% FBS+0.05% triton overnight at 4° C. After 3 washes in PBS cells were incubated with secondary antibodies in 5% FBS+0.05% triton with Hoechst33258 for 1 h at room temperature. After 3 washes in PBS, the cells were scanned with a Cellinsight instrument with a 10×objective and 9 fields/well. Images were analysed using Columbus for cell count based on nuclear Hoechst staining and nuclear intensity of other biomarkers investigated. The total cell count/well was used to calculate the relative growth in each well compared to solvent control. […] The mean/well of the sum of the nuclear intensity of the IF biomarkers was also expressed relative to solvent control.

Assay [1] deals with KPL4 cell line. Described as above. The note with it: monotherapy; KPL4, breast, HER2 High; 4 to 8 days. The assay is classed as cell-based. On the procedure:
as §1

The next assay concerns JIMT-1 cell line. Described as above. In kind it is cell-based. The note with it: Homo sapiens; monotherapy; JIMT-1, breast, HER2 Expressed; 4 to 8 days. The method, then:
as §1

Assay [2] deals with NCI-N87 cell line. The description is as above. The assay is classed as cell-based. Conditions: Homo sapiens; monotherapy; NCI-N87, gastric, HER2 High; 4 to 8 days. The method, then: as §1
For assay [3], the system named is MDA-MB-468 cell line. Described as above. Conditions: Homo sapiens; monotherapy; MDA-MB-468, breast, HER2 Low; 4 to 8 days. In kind it is cell-based. On the procedure:
as §1

The subject of assay [4] is NCI-N87 tumours implanted subcutaneously. As to the kind of experiment: NCI-N87 xenograft antitumor test in vivo. More on the design: species or system Female Nude mice. Conditions: AZD1390 10 mg/kg PO QD × 28; day 40 post treatment.
A further assay relates to ATM signaling. The assay is described as follows: Inhibition of ATM signaling, antibody blots of whole-cell extracts. The assay is classed as cell-based. The method, then: Gastric cancer NCI-N87 and breast carcinoma KPL4 cell lines were cultured in RPMI 1640 supplemented with 10% FCS in a humidified incubator at 37° C. with 5% CO2. Cells were plated in 6-well plates at optimal density to allow linear proliferation for the duration of the assay. […] 7 h, 24 h or 48 h after dosing, whole-cell extracts were obtained by lysis in 50 mM Tris-HCl pH 7.5, 2% SDS containing protease and phosphatase inhibitors. Lysates were boiled for 5 minutes at 95° C. Protein concentration was measured using a Nanodrop at […] and 50 μg of lysate were loaded in 4-12% Bis Tris gels. Proteins were transferred using iblot2. Primary antibodies (see Table 7) were incubated overnight at 4° C. in 3% milk TBS-tween 0.05% and HRP-conjugated secondary antibodies for 1 h at room temperature. Blots were imaged using a G-box.

The next assay relates to T47D cell line. The assay is described as follows: High-throughput combination screen, 7-day cell titer-glo cell viability assay. The assay is classed as cell-based. Conditions: within the selected concentration range. The source says:
(§2) In addition, trastuzumab and exatecan (DNA topoisomerase I inhibitor) were also screened in parallel with AZD1390.
(§3) • Loewe Dose Additivity predicts the expected response if the two compounds act on the same molecular target by means of the same mechanism. It calculates additivity based on the assumption of zero interaction between the compounds and it is independent from the nature of the dose-response relationship. • HSA (Highest Single Agent) [Berenbaum 1989] quantifies the higher of the two single compound effects at their corresponding concentrations. The combined effect is compared with the effect of each single agent at the concentration used in the combination. Excess over the highest single agent effect indicates cooperativity. […] The predicted values are determined by the chosen model. Differences between the predicted and observed values may indicate synergy or antagonism, and are shown in the Excess Matrix. Excess Matrix values are summarized by the combination scores Excess Volume and Synergy Score.
On the technique in general: ATP-based viability assays read luminescence as a measure of living cells.

The subject of assay [5] is KPL4 cell line. The description is as above. The assay is classed as cell-based. The note with it: within the selected concentration range.
Source text: as §2, §3

Assay [6] has as its system NCI-N87 cell line. The assay is described as above. The assay is classed as cell-based. The note with it: within the selected concentration range.
Source text: as §2, §3

For assay [7], the system named is MDA-MB-468 cell line. The assay is described as above. The note with it: within the selected concentration range. In kind it is cell-based.
Source text: as §2, §3

A further assay concerns DU145 cell line. The assay is described as follows: Growth inhibition by total cell (nuclear) count, 96-well imaging. The assay is classed as cell-based. The note with it: Homo sapiens, DU-145; monotherapy; DU145, prostate, HER2 Low; 4 to 8 days. The method, then: as §1
For assay [8], the system named is DU145-SLFN11 KO (CRISPR-Cas9 gene knockout of SLFN11). The assay is described as above. The assay is classed as cell-based. The note with it: monotherapy, prostate, HER2 Low, 4 to 8 days. The method, then: as §1
Another assay deals with KAP1 pSer824, γH2AX. The assay is described as follows: Immunofluorescence biomarkers of ATM activation and DNA damage in KPL4 cells. The assay is classed as cell-based. Conditions: high-HER2 KPL4. The method, then:
Cells grown in their respective conditions were plated in 96-well plates at optimal density to allow linear proliferation for the duration of the assay (4 to 8 days; duration of treatment is dependent on the growth rate of each cell line). Immediately after plating, the cells were dosed with the indicated compounds for a total volume of 200 μL/well and placed in the incubator. Combinations were conducted as a 6×8 concentration response matrix for each combination. At the endpoint, the cells were fixed in 2% PFA for 20 minutes at room temperature. In order to obtain the number of cells at the start of treatment, one additional plate was used for each experiment and fixed after cells attached. The cells were then permeabilised in 0.5% Triton-X100 in PBS for 10 minutes. After a PBS wash, the cells were blocked in 5% FBS in PBS 1 h at RT and incubated with primary antibodies in 5% FBS+0.05% triton overnight at 4° C. After 3 washes in PBS cells were incubated with secondary antibodies in 5% FBS+0.05% triton with Hoechst33258 for 1 h at room temperature. After 3 washes in PBS, the cells were scanned with a Cellinsight instrument with a 10×objective and 9 fields/well. Images were analysed using Columbus for cell count based on nuclear Hoechst staining and nuclear intensity of other biomarkers investigated. […]

Where [9] appears, read: NCI-N87 and KPL4, AZD1390 at 100 nM combined with DS-8201 or exatecan mesylate.

In the case of `CC(C)n1c(=O)n(C)c2cnc3cc(F)c(-c4ccc(OCCCN5CCCCC5)nc4)cc3c21` [AZD1390, 7-fluoro-1-isopropyl-3-methyl-8-[6-[3-(1-piperidyl)propoxy]-3-pyridyl]imidazo[4,5-c]quinolin-2-one], the GI50 with SK-OV-3 cell line, in the assay on KPL4 cell line [1], in the assay on JIMT-1 cell line, in the assay with NCI-N87 cell line [2] and with MDA-MB-468 cell line [3] was greater than 100 nM throughout. Moreover, in assay [4], the “Best response % TGI/regression” value came out at 37%. In addition, the “DNA damage (pRPA, gH2AX)” value with ATM signaling (setting [9]) is given as “exacerbating the DNA damage”. In addition, the “activation of pATM, pChk2, and pKAP1” value in the assay with ATM signaling (setting [9]) is “inhibited the activation of pATM, pChk2, and pKAP1; also recorded: inhibits DS-8201-induced ATM signaling”. Further, the “cell death (cCasp3)” value in the assay with ATM signaling (setting [9]) is listed as “increased cell death”. Besides, the “Single agent activity (cell viability)” value in the assay on T47D cell line, in the assay with KPL4 cell line [5], in the assay with NCI-N87 cell line [6] and in the assay on MDA-MB-468 cell line [7] was “not active” each time.
Take `CC[C@@]1(O)C(=O)OCc2c1cc1n(c2=O)Cc2c-1nc1cc(F)c(C)c3c1c2[C@@H](N)CC3` [Exatecan mesylate, (1S,9S)-1-amino-9-ethyl-5-fluoro-1,2,3,9,12,15-hexahydro-9-hydroxy-4-methyl-10H,13H-benzo[de]pyrano[3′,4′:6,7]indolizino[1,2-b]quinolin-10,13-dione, reference compound]: the GI50 in the assay on SK-OV-3 cell line is 0.914 nM; in the assay on KPL4 cell line [1], 1.18 nM; in the assay on JIMT-1 cell line, 0.745 nM; in the assay with NCI-N87 cell line [2], 0.503 nM; with DU145 cell line, 0.564 nM; in assay [8] it was 0.45 nM. Also, in the assay on MDA-MB-468 cell line [3], the GI50 was determined as 0.162 nM. Further, the “biomarkers of ATM (KAP1 pSer824) activation and DNA strand breaks (yH2AX)” value with KAP1 pSer824, γH2AX is recorded as “induced in a concentration dependent manner”. In addition, the “activation of the ATM pathway (pATM-S1981, pChk2-T68, pKap1-S824)” value in the assay on ATM signaling (Her2-high NCI-N87 and KPL4, DS-8201 at 30 μg/mL or exatecan mesylate alone) is given as “induced activation of the ATM pathway”.
